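Following 48 hours of exposure in 96-well plates, responses at five concentrations were used to interpolate endpoints linearly. GI50 = concentration required for 50% inhibition of growth.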 Calls of active or inactive are those of the source. Rule as the data show it: active = GI50 up to about 1.1 µM and inactive = higher.
Tests used:
Experiment in all cases: DTP human tumour cell line panel, 48 h
[1] = system: MOLT-4
[2] = system: SK-OV-3
[3] = system: SK-MEL-5
[4] = system: HOP-62
[5] = system: KM12
[6] = system: MDA-MB-435
[7] = system: OVCAR-5
[8] = system: COLO 205
[9] = system: M14
[10] = system: 786-0
[11] = system: SNB-75
[12] = system: HCC 2998
[13] = system: DU-145
[14] = system: RXF 393
[15] = system: NCI-H460
[16] = system: SF-539
[17] = system: CAKI-1
[18] = system: HCT-15
[19] = system: IGROV-1
[20] = system: NCI-H522

Compound	GI50 [1]	GI50 [2]	GI50 [3]	GI50 [4]	GI50 [5]	GI50 [6]	GI50 [7]	GI50 [8]	GI50 [9]	GI50 [10]	GI50 [11]	GI50 [12]	GI50 [13]	GI50 [14]	GI50 [15]	GI50 [16]	GI50 [17]	GI50 [18]	GI50 [19]	GI50 [20]
CO/N=C(\C)c1cccc(Nc2nc3ccccc3c3occc23)c1	11.2 µM (inactive)	14.1 µM (inactive)	14.8 µM (inactive)	15.4 µM (inactive)	7.59 µM (inactive)	12.2 µM (inactive)	13.8 µM (inactive)	12.1 µM (inactive)	16.7 µM (inactive)	13.8 µM (inactive)	15.3 µM (inactive)	15.1 µM (inactive)	15.8 µM (inactive)	12.4 µM (inactive)	11.8 µM (inactive)	13.6 µM (inactive)	10.8 µM (inactive)	10.4 µM		
O=C(O)CO[C@@]12C#C/C=C\C#C[C@@H]3N(C(=O)Oc4ccccc4)c4ccccc4[C@]14O[C@@]34CCC2	28.8 µM (inactive)	6.75 µM (inactive)	28 µM (inactive)	83.8 µM (inactive)	17.6 µM (inactive)	1.53 µM (inactive)		20 µM (inactive)	41.1 µM (inactive)	26.9 µM (inactive)		12.5 µM (inactive)	43.3 µM (inactive)		36.4 µM (inactive)	31.4 µM (inactive)	38.7 µM (inactive)	8.55 µM	27.2 µM (inactive)	33.5 µM (inactive)
O=C1c2ccccc2C(=O)N1CC1S(=O)(=O)OCCOS1(=O)=O	> 100 µM (inactive)	> 100 µM (inactive)	> 100 µM (inactive)	> 100 µM (inactive)		> 100 µM (inactive)	> 100 µM (inactive)	> 100 µM (inactive)	> 100 µM (inactive)	> 100 µM (inactive)	> 100 µM (inactive)	> 100 µM (inactive)	> 100 µM (inactive)	> 100 µM (inactive)	> 100 µM (inactive)	98.4 µM (inactive)	> 100 µM (inactive)	> 100 µM	> 100 µM (inactive)	> 100 µM (inactive)
COC(=O)c1ccc(C)cc1/C=C1\Cc2ccc(C)cc2C1=O	13.2 µM (inactive)		13.9 µM (inactive)	15.5 µM (inactive)	11.6 µM (inactive)	4.28 µM (inactive)	15.9 µM (inactive)	8.63 µM (inactive)	16.1 µM (inactive)	16.9 µM (inactive)	5.64 µM (inactive)	19.7 µM (inactive)	16.7 µM (inactive)	14.7 µM (inactive)	40.2 µM (inactive)	12.4 µM (inactive)	26.3 µM (inactive)	13 µM	10.4 µM (inactive)	17.1 µM (inactive)
COc1ccc(/C=C(\C#N)c2nc(N)nc(N3N=C(C)CC3(C)C)n2)c(O)c1	13.1 µM (inactive)	26.9 µM (inactive)	15.2 µM (inactive)	24.1 µM (inactive)	15.6 µM (inactive)	16.9 µM (inactive)	15.3 µM (inactive)	17 µM (inactive)	20.3 µM (inactive)	16.4 µM (inactive)		19.2 µM (inactive)	16.7 µM (inactive)	16.1 µM (inactive)	17.3 µM (inactive)	15.7 µM (inactive)	17.2 µM (inactive)	17.7 µM	24 µM (inactive)	21.7 µM (inactive)
N#CCCSC1SC(=C2SC3=C(SCCS3)S2)SC1SCCC#N (configuration not stated)	> 100 µM (inactive)		> 100 µM (inactive)	> 100 µM (inactive)		> 100 µM (inactive)	> 100 µM (inactive)	> 100 µM (inactive)	> 100 µM (inactive)	> 100 µM (inactive)		> 100 µM (inactive)	> 100 µM (inactive)	> 100 µM (inactive)	> 100 µM (inactive)	> 100 µM (inactive)	> 100 µM (inactive)	> 100 µM	> 100 µM (inactive)	> 100 µM (inactive)
Cc1cc2c(c(C(=O)NCCC(=O)O)c1)Oc1c(cc(C)cc1C(=O)NCCC(=O)O)S2	> 100 µM (inactive)	> 100 µM (inactive)		> 100 µM (inactive)	> 100 µM (inactive)	> 100 µM (inactive)	> 100 µM (inactive)	> 100 µM (inactive)	> 100 µM (inactive)	> 100 µM (inactive)	> 100 µM (inactive)	> 100 µM (inactive)	> 100 µM (inactive)	> 100 µM (inactive)		> 100 µM (inactive)	> 100 µM (inactive)	> 100 µM	> 100 µM (inactive)	> 100 µM (inactive)

From ChEMBL document CHEMBL1201862, “PubChem BioAssay data set” (2004)
